In US20050038022A1, “Method for treatment of cancer and compositions for use therein” (Unisearch Limited, priority 2001, published 2005):

Assays:
PC3, LNCap and Du 145 = experiment: Albendazole/ABS proliferation test, prostate cancer cells; format: cell-based, human; details: PC3, LNCap and Du 145; ABS compared with albendazole
Method: (§1) In order to be able to test ABS, a proper solvent had to be found. […] Therefore to allow direct comparison between the 2 compounds, all subsequent experiments were run using 0.5% DMSO for both ABS and albendazole. In the cell lines examined, albendazole produced very similar results to what we had previously reported for the drug in liver cancer cells.
(§2) Both albendazole and ABS were tested side by side against various cell lines as follows: • Liver—HepGZ Hep3B, SKHEP-1 • Colorectal—170, LOVO, HT-29 • Prostate—PC3, LNCap, Du145 • Leukeamic—HL60
(§3) Cells were treated with various concentrations of each compound for a period of 5 days.

[1] = system: HepG2, SKHEP-1 and Hep 3B; experiment: Albendazole/ABS proliferation test, liver cancer cells; format: cell-based, human; details: 5 days, 0.5% DMSO
Method: as §1, §2, §3

[2] = system: liver, colorectal, prostate and leukeamic cell lines; experiment: Albendazole/ABS side by side in various cell lines (general); format: cell-based
Method: as §1, §2
The fist 9 cell lines were used to compare effectiveness and potency while, the last one was used to assess toxicity on bone marrow (as a rough guide).
as §3

Solubility in solvent = format: physicochemical
Excerpt: as §1

[3] = sulphoxide metabolite after oral albendazole, man; cited from earlier work
C-170, LOVO and HT-29 = experiment: Albendazole/ABS proliferation test, colorectal cell lines; format: cell-based; details: C-170, LOVO and HT-29, 5 days, 0.5% DMSO
Method: as §1, §2, §3

In the case of `CCC[S+]([O-])c1ccc2[nH]c(NC(=O)OC)nc2c1` (stereo not shown) [ABS, albendazole sulphoxide], the “potency in inhibiting proliferation, metabolite versus drug” value (PC3, LNCap and Du 145) is reported as “almost equipotent”, the “proliferation of human liver cancer cells” value [1] is reported as “inhibit proliferation” and the “antiproliferative activity at 0.25 micromoles/L” value ([2]; 0.25 micromoles/L, 5 days) is reported as “dramatically increasing”. The “effectiveness compared with parent drug” value ([2]; 10 different cell lines, earlier results, latest results cast doubt) was “as effective as the parent drug”, the inhibition at 1 µM ([2]; 120 h, 1 micromoles/L, 5 days) was about 100% and the “concentration at which antiproliferative activity becomes evident” value ([2]; 5 days, 0.5% DMSO, in general) was 0.01 µmol/L. The solubility in ethanol (Solubility in solvent) was “not soluble in ethanol”, the peak plasma concentrations [3] was 200 to 300 ng/mL and the plasma half life [3] was 8 to 9 h. For the same compound, the “activity against colorectal cell lines” value (C-170, LOVO and HT-29) was “same sort of activity”.
